Data on one compound can be found in paper PMC11352370, “Live Cell Monitoring of Phosphodiesterase Inhibition by Sulfonylurea Drugs” (Biomolecules, 2024).

Structures are written as SMILES.

The subject of the test is T1, PDE3B.
T1 construct: Epac2-camps-PDE3B fusion biosensor
In words: live-cell FRET with Epac-camps/PDE3B fusion biosensors in HEK293a cells. The format is cell-based.

In the case of `CCCCNC(=O)NS(=O)(=O)c1ccc(C)cc1` [TOL, tolbutamide], the IC50 was approximately 700 µM.

The IC50 is the midpoint of a concentration-inhibition curve.
